Test [1] deals with T1, 5-hydroxytryptamine receptor 2C (Homo sapiens, UniProt P28335).
T1 sequence (P28335 whole entry): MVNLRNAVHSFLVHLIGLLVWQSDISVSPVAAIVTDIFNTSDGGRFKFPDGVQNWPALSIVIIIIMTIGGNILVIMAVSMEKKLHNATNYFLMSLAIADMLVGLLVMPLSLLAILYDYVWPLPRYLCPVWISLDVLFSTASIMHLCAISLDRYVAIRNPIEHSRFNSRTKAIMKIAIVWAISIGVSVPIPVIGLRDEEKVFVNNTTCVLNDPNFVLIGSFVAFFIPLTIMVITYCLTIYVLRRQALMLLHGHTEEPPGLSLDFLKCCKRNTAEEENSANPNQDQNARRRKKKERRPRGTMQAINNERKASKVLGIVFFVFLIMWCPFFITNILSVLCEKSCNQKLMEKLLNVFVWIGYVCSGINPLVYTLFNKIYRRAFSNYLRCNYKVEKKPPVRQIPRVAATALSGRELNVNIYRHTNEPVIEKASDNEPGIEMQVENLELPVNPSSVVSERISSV
Kind of test: Displacement of [3H]mesulergine from human recombinant 5HT2C receptor expressed in Flp-IN HEK cells. The class given is cell-based, HEK293.

The target in test [2] is 5-hydroxytryptamine receptor 2B (Homo sapiens, UniProt P41595). Briefly: Displacement of [3H]LSD from human recombinant 5HT2B receptor stably expressed in HEK cells. It counts as cell-based, HEK293. A general note: Displacement assays read how much labelled ligand stays bound in the presence of the test substance.
Test [3] deals with 5-hydroxytryptamine receptor 1B (Homo sapiens, UniProt P28222). Briefly: Displacement of [3H]5-CT from human recombinant 5HT1B receptor stably expressed in HEK cells. The class given is cell-based, HEK293.
For test [4], the target named is 5-hydroxytryptamine receptor 1D (Homo sapiens, UniProt P28221). Kind of test: Displacement of [3H]5-CT from human recombinant 5HT1D receptor expressed in HEKT cells. It counts as cell-based.
The test system of test [5] is Gallus gallus. Kind of test: Effect on social seperation in chick anxiety-depression model assessed as attenuation of decline in distress vocalizations during depression-like phase at 30 nM/kg, ip 15 mins prior to behavioral testing measured after 45 to 60 mins. The class given is functional, organism-based.
The target in test [6] is 5-hydroxytryptamine receptor 2A (Rattus norvegicus, UniProt P14842). Briefly: Displacement of [3H]ketanserin from rat 5HT2A receptor stably expressed in 3T3 cells. It counts as cell-based.
The test system of test [7] is Gallus gallus. Kind of test: Effect on social seperation in chick anxiety-depression model assessed as attenuation of decline in distress vocalizations during depression-like phase at 10 to 100 nM/kg, ip 15 mins prior to behavioral testing measured after 30 to 45 mins. It counts as functional, organism-based.
Test [8] concerns the target 5-hydroxytryptamine receptor 7 (Homo sapiens, UniProt P34969). Briefly: Displacement of [3H]LSD from human recombinant 5HT7 receptor stably expressed in HEK cells. The class given is cell-based, HEK293.
Test [9] relates to Gallus gallus. Kind of test: Effect on isolation-stressor in chick anxiety-depression model assessed as attenuation of decline in distress vocalizations during depression-like phase at 30 nM/kg, ip 15 mins prior to behavioral testing measured after 5 to 60 mins. The class given is functional, organism-based.
For test [10], the target named is 5-hydroxytryptamine receptor 5A (Homo sapiens, UniProt P47898). Briefly: Displacement of [3H]LSD from human recombinant 5HT5A receptor expressed in Flp-In CHO cells. It counts as cell-based.
Test [11] concerns the target 5-hydroxytryptamine receptor 6 (Homo sapiens, UniProt P50406). Kind of test: Displacement of [3H]LSD from human recombinant 5HT6 receptor stably expressed in HEK cells. It counts as cell-based, HEK293.
Test [12] concerns Gallus gallus. Briefly: Effect on isolation-stressor in chick anxiety-depression model assessed as reduction in distress vocalizations during anxiety-like phase at 10 to 100 nM/kg, ip 15 mins prior to behavioral testing measured for 1 to 5 mins. It counts as functional, organism-based.
Test [13] relates to Gallus gallus. Briefly: Effect on social seperation in chick anxiety-depression model assessed as reduction in distress vocalizations during anxiety-like phase at 10 to 100 nM/kg, ip 15 mins prior to behavioral testing measured for 1 to 5 mins. It counts as functional, organism-based.
Test [14] has as its target 5-hydroxytryptamine receptor 1E (Homo sapiens, UniProt P28566). Kind of test: Displacement of [3H]5-HT from human recombinant 5HT1E receptor stably expressed in HEK cells. The class given is cell-based, HEK293.
The target of test [15] is T2, 5-hydroxytryptamine receptor 1A (Homo sapiens, UniProt P08908).
T2 sequence (P08908 whole entry): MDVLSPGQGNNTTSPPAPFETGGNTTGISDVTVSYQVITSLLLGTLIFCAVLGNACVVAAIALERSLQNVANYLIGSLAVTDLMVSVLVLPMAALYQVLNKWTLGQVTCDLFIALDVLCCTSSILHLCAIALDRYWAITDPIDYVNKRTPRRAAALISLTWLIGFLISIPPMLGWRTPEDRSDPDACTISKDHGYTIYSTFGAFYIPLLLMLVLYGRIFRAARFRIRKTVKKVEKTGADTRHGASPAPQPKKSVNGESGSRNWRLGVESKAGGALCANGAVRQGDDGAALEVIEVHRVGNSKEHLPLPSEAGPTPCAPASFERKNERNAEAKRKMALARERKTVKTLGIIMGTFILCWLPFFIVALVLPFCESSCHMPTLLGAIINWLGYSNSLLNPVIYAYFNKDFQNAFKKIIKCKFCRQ
Briefly: Displacement of [3H]way100635 from human recombinant 5HT1A receptor stably expressed in CHO cells. It counts as cell-based.

In test [16] the target is T3, 5-hydroxytryptamine receptor 3A (Homo sapiens, UniProt P46098).
T3 sequence (P46098 whole entry): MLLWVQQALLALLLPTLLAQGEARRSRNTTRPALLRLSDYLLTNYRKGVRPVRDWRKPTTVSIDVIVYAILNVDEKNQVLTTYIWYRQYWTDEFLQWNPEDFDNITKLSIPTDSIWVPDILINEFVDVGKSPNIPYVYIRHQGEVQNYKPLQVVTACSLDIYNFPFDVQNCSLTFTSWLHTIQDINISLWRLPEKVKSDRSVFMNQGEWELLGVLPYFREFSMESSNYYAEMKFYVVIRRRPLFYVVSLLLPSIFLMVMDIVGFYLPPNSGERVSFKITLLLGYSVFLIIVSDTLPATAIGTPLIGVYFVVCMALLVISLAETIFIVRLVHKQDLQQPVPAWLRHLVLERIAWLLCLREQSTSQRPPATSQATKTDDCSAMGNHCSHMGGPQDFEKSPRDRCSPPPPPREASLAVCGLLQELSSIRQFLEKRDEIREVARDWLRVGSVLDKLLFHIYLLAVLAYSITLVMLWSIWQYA
Kind of test: Displacement of [3H]GR65630 from human recombinant 5HT3 receptor expressed in HEKT cells. The class given is cell-based.

The subject of test [17] is Gallus gallus. Briefly: Effect on isolation-stressor in chick anxiety-depression model assessed as attenuation of decline in distress vocalizations during depression-like phase at 5 mg/kg, ip 15 mins prior to behavioral testing measured after 5 to 60 mins. It counts as functional, organism-based. Also on record: dose 5 mg/kg.
The test system of test [18] is Gallus gallus. Kind of test: Effect on social seperation in chick anxiety-depression model assessed as attenuation of decline in distress vocalizations during depression-like phase at 5 mg/kg, ip 15 mins prior to behavioral testing measured after 30 to 45 mins. It counts as functional, organism-based. Also on record: dose 5 mg/kg.
In test [19] the test system is Gallus gallus. Briefly: Effect on social seperation in chick anxiety-depression model assessed as attenuation of decline in distress vocalizations during depression-like phase at 5 mg/kg, ip 15 mins prior to behavioral testing measured after 45 to 60 mins. It counts as functional, organism-based. The arrangement: dose 5 mg/kg.

From ChEMBL document CHEMBL2440075, “In vitro structure-activity relationships of aplysinopsin analogs and their in vivo evaluation in the chick anxiety-depression model” (Bioorg Med Chem, 2013) come the findings set out here.

The source made the active and inactive calls. No cut-off for these calls is given here.

5-hydroxytryptamine receptor 5A, sequence (P47898 whole entry): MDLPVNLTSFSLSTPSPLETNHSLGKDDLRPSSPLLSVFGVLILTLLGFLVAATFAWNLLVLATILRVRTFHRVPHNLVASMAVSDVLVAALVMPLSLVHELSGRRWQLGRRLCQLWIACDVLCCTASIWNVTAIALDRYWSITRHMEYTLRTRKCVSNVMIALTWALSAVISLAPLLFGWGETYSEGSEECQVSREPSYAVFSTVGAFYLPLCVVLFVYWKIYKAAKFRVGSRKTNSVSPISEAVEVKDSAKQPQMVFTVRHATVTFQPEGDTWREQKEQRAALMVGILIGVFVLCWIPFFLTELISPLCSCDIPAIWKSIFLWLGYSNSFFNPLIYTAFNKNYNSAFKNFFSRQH
5-hydroxytryptamine receptor 2B, sequence (P41595 whole entry): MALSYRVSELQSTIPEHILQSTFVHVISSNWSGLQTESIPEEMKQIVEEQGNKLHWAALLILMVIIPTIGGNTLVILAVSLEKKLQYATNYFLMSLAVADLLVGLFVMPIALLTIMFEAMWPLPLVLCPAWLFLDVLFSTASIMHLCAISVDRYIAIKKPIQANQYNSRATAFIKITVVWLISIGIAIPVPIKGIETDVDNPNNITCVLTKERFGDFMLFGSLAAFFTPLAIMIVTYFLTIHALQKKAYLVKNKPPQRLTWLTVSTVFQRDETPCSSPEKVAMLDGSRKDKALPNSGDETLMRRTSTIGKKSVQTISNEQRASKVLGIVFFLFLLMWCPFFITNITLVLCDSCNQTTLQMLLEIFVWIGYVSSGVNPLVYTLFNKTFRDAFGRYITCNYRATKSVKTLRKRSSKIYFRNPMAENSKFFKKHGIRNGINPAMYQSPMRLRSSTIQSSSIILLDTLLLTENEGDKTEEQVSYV
5-hydroxytryptamine receptor 2A, sequence (P14842 whole entry): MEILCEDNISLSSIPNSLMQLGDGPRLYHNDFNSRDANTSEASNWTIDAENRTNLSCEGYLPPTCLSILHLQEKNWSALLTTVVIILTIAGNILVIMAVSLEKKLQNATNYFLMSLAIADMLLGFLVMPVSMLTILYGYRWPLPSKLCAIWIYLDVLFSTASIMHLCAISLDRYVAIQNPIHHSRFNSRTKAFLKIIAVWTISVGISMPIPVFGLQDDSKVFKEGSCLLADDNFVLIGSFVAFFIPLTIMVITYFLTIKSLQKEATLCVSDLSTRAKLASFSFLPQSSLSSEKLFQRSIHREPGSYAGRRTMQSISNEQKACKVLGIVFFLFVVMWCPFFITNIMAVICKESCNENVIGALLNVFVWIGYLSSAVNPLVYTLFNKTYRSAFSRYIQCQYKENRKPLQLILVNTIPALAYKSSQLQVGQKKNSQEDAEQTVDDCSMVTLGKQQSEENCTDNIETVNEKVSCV
5-hydroxytryptamine receptor 1E, sequence (P28566 whole entry): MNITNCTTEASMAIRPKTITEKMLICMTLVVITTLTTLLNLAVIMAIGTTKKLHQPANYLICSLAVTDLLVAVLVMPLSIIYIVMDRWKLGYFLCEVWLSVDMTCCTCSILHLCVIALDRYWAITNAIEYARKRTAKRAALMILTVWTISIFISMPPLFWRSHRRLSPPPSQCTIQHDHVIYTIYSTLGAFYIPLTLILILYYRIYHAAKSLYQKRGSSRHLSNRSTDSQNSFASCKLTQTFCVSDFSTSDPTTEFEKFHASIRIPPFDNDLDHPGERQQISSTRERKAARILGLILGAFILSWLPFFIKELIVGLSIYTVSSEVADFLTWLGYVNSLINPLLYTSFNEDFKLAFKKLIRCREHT
5-hydroxytryptamine receptor 7, sequence (P34969 whole entry): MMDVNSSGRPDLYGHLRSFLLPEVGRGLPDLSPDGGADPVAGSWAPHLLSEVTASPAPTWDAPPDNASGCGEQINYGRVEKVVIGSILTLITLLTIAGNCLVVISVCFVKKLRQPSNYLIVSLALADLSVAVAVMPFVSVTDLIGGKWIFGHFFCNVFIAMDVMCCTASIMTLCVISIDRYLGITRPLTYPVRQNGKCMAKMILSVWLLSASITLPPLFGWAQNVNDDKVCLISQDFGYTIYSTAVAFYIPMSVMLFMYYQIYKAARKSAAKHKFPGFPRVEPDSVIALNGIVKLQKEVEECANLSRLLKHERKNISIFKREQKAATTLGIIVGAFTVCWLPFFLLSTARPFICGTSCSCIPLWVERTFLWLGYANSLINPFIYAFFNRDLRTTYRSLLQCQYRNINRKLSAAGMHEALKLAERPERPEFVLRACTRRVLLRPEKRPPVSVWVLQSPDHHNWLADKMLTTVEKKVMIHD
5-hydroxytryptamine receptor 1D, sequence (P28221 whole entry): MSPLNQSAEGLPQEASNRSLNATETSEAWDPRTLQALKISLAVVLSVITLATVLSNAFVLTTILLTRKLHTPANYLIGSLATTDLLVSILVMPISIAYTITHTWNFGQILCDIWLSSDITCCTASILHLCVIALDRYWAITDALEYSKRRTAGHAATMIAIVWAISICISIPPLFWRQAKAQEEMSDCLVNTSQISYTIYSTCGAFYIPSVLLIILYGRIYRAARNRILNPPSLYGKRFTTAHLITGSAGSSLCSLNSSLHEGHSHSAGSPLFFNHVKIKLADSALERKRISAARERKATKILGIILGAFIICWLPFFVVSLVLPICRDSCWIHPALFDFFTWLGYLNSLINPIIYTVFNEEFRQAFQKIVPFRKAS
5-hydroxytryptamine receptor 6, sequence (P50406 whole entry): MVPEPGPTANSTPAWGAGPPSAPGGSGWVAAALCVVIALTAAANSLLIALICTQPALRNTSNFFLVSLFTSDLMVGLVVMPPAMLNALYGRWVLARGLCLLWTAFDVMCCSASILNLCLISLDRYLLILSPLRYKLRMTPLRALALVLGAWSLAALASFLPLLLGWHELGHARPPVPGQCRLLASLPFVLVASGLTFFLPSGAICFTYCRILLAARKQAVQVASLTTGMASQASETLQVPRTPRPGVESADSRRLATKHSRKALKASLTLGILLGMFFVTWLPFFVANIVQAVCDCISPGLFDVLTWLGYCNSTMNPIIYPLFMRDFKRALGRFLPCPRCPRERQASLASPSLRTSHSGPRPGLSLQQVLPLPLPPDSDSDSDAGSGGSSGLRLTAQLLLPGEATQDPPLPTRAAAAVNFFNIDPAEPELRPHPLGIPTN
5-hydroxytryptamine receptor 1B, sequence (P28222 whole entry): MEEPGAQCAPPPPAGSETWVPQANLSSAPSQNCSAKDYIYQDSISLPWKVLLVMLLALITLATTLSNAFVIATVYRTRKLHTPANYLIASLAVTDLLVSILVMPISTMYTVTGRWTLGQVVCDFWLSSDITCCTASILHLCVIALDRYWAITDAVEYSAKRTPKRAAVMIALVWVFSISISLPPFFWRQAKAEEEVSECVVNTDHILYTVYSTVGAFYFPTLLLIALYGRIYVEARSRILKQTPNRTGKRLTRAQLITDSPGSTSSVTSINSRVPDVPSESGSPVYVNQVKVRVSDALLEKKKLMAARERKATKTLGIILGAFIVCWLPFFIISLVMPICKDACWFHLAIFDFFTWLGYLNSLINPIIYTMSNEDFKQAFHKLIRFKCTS

In the case of `C/N=C1/N/C(=C/c2c[nH]c3cccc(Br)c23)C(=O)N1C`, the inhibitory constant (Ki) in test [1] was 2.34 µM; in test [2], 0.774 µM; in test [3], more than 10 µM; in test [4], more than 10 µM.

For the molecule `N=C1NC(=O)/C(=C\c2c[nH]c3ccc(Br)cc23)N1`, the Ki in test [1] was determined as 0.035 µM; in [2], 0.051 µM; in test [6] it was 0.058 µM; in test [8], 0.512 µM; in test [10] it was 0.089 µM; in [11], 0.742 µM. The result in test [5], in test [9] and in test [13] was Active. Further, the outcome in test [7] and in test [12] was inactive.

As to `CN1C(=N)N(C)/C(=C/c2c[nH]c3c(Br)cccc23)C1=O`, the Ki in test [1] is 3.01 µM; in test [2], 0.349 µM; in test [14] it was more than 10 µM; in test [15], 1.81 µM; in test [3], more than 10 µM; in test [16] it was 1.22 µM. Besides, the Ki in test [4] was more than 10 µM.

As to `C/N=C1\N(C)C(=O)/C(=C\c2c[nH]c3ccccc23)N1C` [METHYLAPLYSINOPSIN], the Ki in [1] was 10 µM; in [2], 4.55 µM; in test [14], more than 10 µM; in [6] it was more than 10 µM; in test [16] it was 1.51 µM; in test [11], 1.72 µM.

On to `C/N=C1\N(C)C(=O)/C(=C\c2c[nH]c3cccc(Br)c23)N1C`, for which the Ki in test [1] is 1.86 µM; in [2] it was 0.897 µM; in test [14], more than 10 µM; in test [15], 6.93 µM; in test [6] it was more than 10 µM; in test [16], 0.591 µM. The Ki in [10] was 5.08 µM; in test [11], 7.52 µM; in test [4], 2.55 µM.

On to `C/N=C1\NC(=O)/C(=C\c2c[nH]c3cccc(Br)c23)N1C`, for which the Ki was 0.32 µM in [1]; 0.099 µM in [2]; 4.61 µM in test [15]; 0.662 µM in [6]; more than 10 µM in test [3]; 5.92 µM in [16]. Moreover, the Ki in [10] was 1.45 µM; in test [11], 1.41 µM; in [4] it was more than 10 µM.

With `CN1C(=N)N(C)/C(=C/c2c[nH]c3ccc(Br)cc23)C1=O`, the Ki was 1.27 µM in test [1]; 1.25 µM in test [2]; 0.527 µM in test [15]; 1 µM in test [16]; 6.72 µM in test [10].

As for `CN1C(=N)N/C(=C/c2c[nH]c3ccc(Br)cc23)C1=O`, the Ki worked out at 1.27 µM in [1]; 0.094 µM in test [2]; 7.36 µM in test [15]; 0.279 µM in test [6]; 1.22 µM in test [8]; 2.33 µM in test [10].

`C/N=C1/N/C(=C/c2c[nH]c3ccc(Br)cc23)C(=O)N1C`: the Ki in test [1] was 1.34 µM; in test [2], 0.52 µM; in test [6], more than 10 µM; in test [8], 3.35 µM.

`C/N=C1\NC(=O)/C(=C\c2c[nH]c3ccc(Br)cc23)N1C`: the Ki was determined as 1.08 µM in test [1]; 0.883 µM in [2]; 2.62 µM in test [15]; 4.11 µM in [8]; 6.18 µM in test [16].

Take `C/N=C1\N(C)C(=O)/C(=C\c2c[nH]c3ccc(Br)cc23)N1C`: the Ki is 2.43 µM in [1]; 1.62 µM in test [2]; 2.51 µM in test [15]; 5.37 µM in [8]; 2.62 µM in [16]; 9.12 µM in test [10].

`CN(C)CCCN1c2ccccc2CCc2ccccc21`: the outcome in test [17], in test [18] and in [19] was Active.

Take `C/N=C1\N(C)C(=O)/C(=C\c2c[nH]c3c(Br)cccc23)N1C`: the Ki is 6.47 µM in test [1]; 0.965 µM in test [2]; more than 10 µM in test [15]; more than 10 µM in test [3]; 6.91 µM in test [10]; 7.3 µM in [11]. Moreover, the inhibitory constant (Ki) in [4] was 8.87 µM.

In the case of `CN1C(=N)N(C)/C(=C/c2c[nH]c3cccc(Br)c23)C1=O`, the Ki is 2.76 µM in [1]; 0.589 µM in test [2]; more than 10 µM in [14]; 0.315 µM in test [15]; more than 10 µM in test [6]; more than 10 µM in test [3]. The Ki in test [16] came out at 0.656 µM; in test [10] it was 7.83 µM; in test [4] it was 6.83 µM.

For `CN1C(=N)N(C)/C(=C/c2c[nH]c3ccccc23)C1=O` [APLYSINOPSIN], the Ki was 10 µM in test [1]; 4.45 µM in [2]; more than 10 µM in [15]; 3.03 µM in test [16]; 8.77 µM in [11].

For `CN1C(=N)NC(=O)/C1=C\c1c[nH]c2cccc(Br)c12`, the Ki came to 2.01 µM in test [1], 0.784 µM in test [2], 1.41 µM in test [6] and 0.799 µM in test [8].

The term Ki denotes the equilibrium dissociation constant of an inhibitor or competing ligand from its target.
